The source of these data is patent US20250034216A1, “STEREOSELECTIVE COVALENT LIGANDS FOR ONCOGENIC AND IMMUNOLOGICAL PROTEINS” (The Scripps Research Institute, priority 2021, published 2025).

For test [1], the target named is T1, recombinant FLAG-PSME1 WT or C22A (Homo sapiens, UniProt Q06323).
T1 construct: FLAG; expressed in transfected cells; host or cells: 22Rv1 pLenti3.3/TR (tetracycline-induced)
Description: SEC analysis by western blot. It counts as cell-based. As to conditions: 22Rv1 cells expressing FLAG-PSME1 WT, 10 μM, 3 h. The procedure: (§1) For experiments using transiently overexpressed constructs (FLAG-PSME1 WT/C22A, HA-ACAT1 WT/C126A), Stable clonal 22Rv1 pLenti3.3/TR were transfected using polyethylenimine and treated with tetracycline ([…]) for 48 h prior to treatment with electrophilic probes.
(§2) Cells were lysed and fractioned by SEC. After acetone precipitation and resuspension, 4× gel loading buffer was added to eluates, and proteins were resolved using SDS-PAGE (4-20% acrylamide, Tris-glycine gel), and transferred to a nitrocellulose membrane. The membrane was blocked with 5% milk in Tris-buffered saline (20 mM Tris-HCl 7.6, 150 mM NaCl) with 0.1% tween (TBST) and incubated with primary antibody overnight. After TBST wash (3 times), the membrane was incubated with secondary antibody, washed with TBST again, developed with ECL western blotting detection reagents, and recorded on a Bio-Rad ChemiDoc MP. Relative band intensities were analyzed using ImageJ.
On the technique in general: SEC sorts molecules by how far they enter the pores of the column.

Test [2] addresses T2, recombinant FLAG-PSME1 WT or C22A (Homo sapiens, UniProt Q06323, C22A).
T2 construct: FLAG; expressed in transfected cells; host or cells: 22Rv1 pLenti3.3/TR (tetracycline-induced)
Description: SEC analysis by western blot. It counts as cell-based. As to conditions: 22Rv1 cells expressing FLAG-PSME1 C22A, 10 μM, 3 h. The procedure: as §1, §2

The next test concerns the target T3, PSME1_C106 and PSME2_C91 (Homo sapiens, UniProt Q06323).
T3 construct: endogenous in cells; host or cells: 22Rv1
Description: IA-DTB cysteine reactivity. The format is binding. As to conditions: 22Rv1 cells, 20 μM, 1 h. The procedure:
Sample preparation: Cells (adherent: 15 cm dishes, suspension: 2 million cells/mL) were treated with electrophilic probes in situ for indicated times and concentrations, washed with ice-cold PBS, and flash frozen in liquid nitrogen. Cell pellets were lysed by sonication (8 pulses, 40% power) in 500 μL ice-cold PBS supplemented with cOmplete protease inhibitors (1 tablet/10 mL of PBS). Whole cell lysates protein content was measured using a standard DC protein assay (Bio-Rad) and 500 μL (2 mg/mL protein content) were treated with 5 μL of 10 mM 1A-DTB (in DMSO) for 1 h at ambient temperature with occasional vortexing. Samples were methanol-chloroform precipitated with the addition of 500 μL ice-cold MeOH and 200 μL CHCl3, vortexed, and centrifuged (10 min, 10,000 g). Without disrupting the protein disk, both top and bottom layers were aspirated and the protein disk was washed with 1 mL ice-cold MeOH and centrifuged (10 min, 10,000 g). The pellets were allowed to air dry, and then re-suspended in 90 μL buffer (9 M urea, 10 mM DTT, 50 mM TEAB pH 8.5). […]
Data processing: Cysteine engagement ratios (probe vs DMSO) were calculated for each peptide-spectra match by dividing each TMT reporter ion intensity by the average intensity for the channels corresponding to DMSO treatment. […]

T2 sequence (Q06323 whole entry C22A): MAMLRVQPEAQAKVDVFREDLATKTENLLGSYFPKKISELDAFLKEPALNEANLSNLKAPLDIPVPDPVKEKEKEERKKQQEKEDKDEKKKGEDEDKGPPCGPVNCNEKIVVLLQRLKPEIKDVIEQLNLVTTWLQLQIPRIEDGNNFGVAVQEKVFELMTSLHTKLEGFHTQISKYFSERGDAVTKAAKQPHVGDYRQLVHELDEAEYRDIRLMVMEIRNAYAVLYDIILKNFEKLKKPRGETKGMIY
T1 sequence (Q06323 whole entry, stated change not applied): as the sequence (Q06323 whole entry C22A) above, with A22C counted along it
T3 sequence (Q06323 whole entry): as the sequence (Q06323 whole entry C22A) above, with A22C counted along it

Regarding `C=CC(=O)N1C[C@H](c2ccc(Br)cc2)[C@@H]1C(=O)Nc1cccc2cccnc12` [MY-1B, (2R,3S)-1-acryloyl-3-(4-bromophenyl)-N-(quinolin-8-yl)azetidine-2-carboxamide], in test [1], the “SEC size shift of recombinant WT-PSME1” value was “clear size shift”. Also, the “SEC size shift of recombinant PSME1 C22A mutant” value in test [2] is recorded as “unaffected”. Moreover, at PSME1_C106 and PSME2_C91, the “IA-DTB reactivity of PSME1 C106 and PSME2 C91” value is “striking, stereoselective increases in reactivity”.
